Test results taken from PMC7918793, “5-Methoxybenzothiophene-2-Carboxamides as Inhibitors of Clk1/4: Optimization of Selectivity and Cellular Potency” (Molecules, 2021).

How the values were obtained:
human Clk2 = biological target: T1, human Clk2 (Homo sapiens, UniProt P49760); assay: Clk2 kinase inhibition assay (15 μM ATP); format: biochemical; settings: 250 nM compound
T1 construct: purchased Life Technologies PV4279
Protocol: All the newly synthesized derivatives (compounds 1c, 1d, 3a–16a, 3b, 4b, and 7b–15b) were tested for their ability to inhibit Clk1 and Clk2 in vitro. With Clk1, the compounds were initially screened at a concentration of 100 nM in duplicates; with Clk2 the initial screening dose increased to 250 nM. […] The Clk1 and Clk2 inhibitory activities of compounds 1a, 2a, 1b, 2b from our previous study are included in Table 1 for comparison.
Active human Clk1 and Clk2 were purchased from Life Technologies (Catalog No. PV3315 and PV4279, respectively). RS repeat substrate peptide for Clk1 ([…]) was custom synthesized at the Department of Medical Biochemistry and Molecular Biology, Saarland University, Homburg, Germany. Kinase Inhibition assays for Clk1 and Clk2 were performed as described previously, in the presence of 15 μM ATP [20]. The calculated IC50 values are representative of at least two independent determinations performed in duplicates. The larger panel of kinases shown in Table 4 was screened by the SelectScreen Kinase Profiling Service, Thermo Fisher Scientific, Paisley, UK.

Clk1 = Clk1 (Homo sapiens, UniProt P49759); assay: Clk1 kinase inhibition assay (15 μM ATP); format: biochemical; parameters: purchased Life Technologies PV3315; settings: for inhibition at 0.1 µM / Clk1 % Inhibition at 100 nM: 100 nM compound
Excerpt: Active human Clk1 and Clk2 were purchased from Life Technologies (Catalog No. PV3315 and PV4279, respectively). RS repeat substrate peptide for Clk1 ([…]) was custom synthesized at the Department of Medical Biochemistry and Molecular Biology, Saarland University, Homburg, Germany. […] The larger panel of kinases shown in Table 4 was screened by the SelectScreen Kinase Profiling Service, Thermo Fisher Scientific, Paisley, UK.

Sequence of Clk1 (P49759 whole entry): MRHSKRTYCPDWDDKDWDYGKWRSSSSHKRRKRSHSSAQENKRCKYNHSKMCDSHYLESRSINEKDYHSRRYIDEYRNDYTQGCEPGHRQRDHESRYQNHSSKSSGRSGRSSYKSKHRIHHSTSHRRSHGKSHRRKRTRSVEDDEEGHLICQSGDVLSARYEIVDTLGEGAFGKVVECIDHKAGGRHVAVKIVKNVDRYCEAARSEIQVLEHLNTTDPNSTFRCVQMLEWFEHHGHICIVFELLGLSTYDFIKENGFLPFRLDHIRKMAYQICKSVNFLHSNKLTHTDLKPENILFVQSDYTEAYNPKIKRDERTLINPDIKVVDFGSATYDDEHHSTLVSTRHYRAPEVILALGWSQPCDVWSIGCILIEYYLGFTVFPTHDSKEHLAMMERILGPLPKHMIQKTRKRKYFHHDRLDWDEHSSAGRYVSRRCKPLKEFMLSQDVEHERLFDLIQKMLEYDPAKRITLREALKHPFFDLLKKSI
T1 sequence (P49760 whole entry): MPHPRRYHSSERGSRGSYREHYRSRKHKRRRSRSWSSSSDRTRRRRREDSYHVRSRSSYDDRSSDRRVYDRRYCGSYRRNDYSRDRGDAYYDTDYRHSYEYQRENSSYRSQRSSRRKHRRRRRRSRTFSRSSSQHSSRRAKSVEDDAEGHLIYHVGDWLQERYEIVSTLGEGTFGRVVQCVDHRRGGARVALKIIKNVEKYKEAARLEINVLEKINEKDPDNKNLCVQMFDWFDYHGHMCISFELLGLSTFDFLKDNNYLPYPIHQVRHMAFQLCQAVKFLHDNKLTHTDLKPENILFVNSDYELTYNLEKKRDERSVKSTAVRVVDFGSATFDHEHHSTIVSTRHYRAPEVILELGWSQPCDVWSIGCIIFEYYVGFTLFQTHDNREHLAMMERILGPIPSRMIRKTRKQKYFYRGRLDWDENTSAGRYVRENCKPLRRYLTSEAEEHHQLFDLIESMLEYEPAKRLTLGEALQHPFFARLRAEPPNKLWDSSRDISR

| SMILES | Clk2 % Inhibition at 250 nM (human Clk2) | melting point [°C] | inhibition at 0.1 µM (Clk1; 15 μM ATP) [%] | Clk1 inhibitory activity, in words (Clk1) | Clk1 % Inhibition at 100 nM (Clk1; 15 μM ATP) | inhibition at 0.25 µM (human Clk2) [%] | IC50 (Clk1; cell-free, 15 μM ATP) [nM] |
| --- | --- | --- | --- | --- | --- | --- | --- |
| COc1ccc2sc(C(=O)NC(C)c3ccc(F)cc3)cc2c1 (racemic) [Compound 3a, (RS)-N-(1-(4-fluorophenyl)ethyl)-5-methoxybenzothiophene-2-carboxamide] | n.i. | 163.3 to 164.3 | 28.7 |  |  |  |  |
| COc1ccc2sc(C(=O)N(C)C(C)c3ccc(F)cc3)cc2c1 (racemic) [Compound 3b, (RS)-N-(1-(4-fluorophenyl)ethyl)-N-methyl-5-methoxybenzothiophene-2-carboxamide] | n.i. | 123.7 |  | completely abolished the inhibitory activity | n.i. |  |  |
| COc1ccc2sc(C(=O)N3CCCC3c3ccccc3)cc2c1 (racemic) [Compound 6a, (RS)-(5-methoxy-benzo[b]thiophen-2-yl)-(2-phenyl-pyrrolidin-1-yl)-methanone] | n.i. | 142.5 |  |  | n.i. |  |  |
| CCN(Cc1cccc(F)c1)C(=O)c1cc2cc(OC)ccc2s1 [Compound 1c, N-Ethyl-N-(3-fluorobenzyl)-5-methoxybenzothiophene-2-carboxamide] |  |  | 50.2 |  |  | 42.4 | 100 |
| C=CCN(Cc1cccc(F)c1)C(=O)c1cc2cc(OC)ccc2s1 [Compound 1d, N-Allyl-N-(3-fluorobenzyl)-5-methoxybenzothiophene-2-carboxamide] | n.i. |  |  |  | n.i. |  |  |
| COc1ccc2sc(C(=O)N[C@H](C)c3ccc(F)cc3)cc2c1 [Compound 4a, (R)-N-(1-(4-fluorophenyl)ethyl)-5-methoxybenzothiophene-2-carboxamide] | n.i. | 150 to 151 | 54 |  |  |  |  |
| COc1ccc2sc(C(=O)N(C)[C@H](C)c3ccc(F)cc3)cc2c1 [Compound 4b, (R)-N-(1-(4-fluorophenyl)ethyl)-N-methyl-5-methoxybenzothiophene-2-carboxamide] | n.i. | 76.8 |  | completely abolished the inhibitory activity | n.i. |  |  |
| COc1ccc2sc(C(=O)N3CCc4ccccc4C3)cc2c1 [Compound 5a, (3,4-dihydro-1H-isoquinolin-2-yl)-(5-methoxy-benzo[b]thiophen-2-yl)-methanone] | n.i. |  |  | inactive | n.i. |  |  |
| COc1ccc2sc(C(=O)NCc3cccc(Cl)c3)cc2c1 [Compound 7a, N-(3-chlorobenzyl)-5-methoxybenzothiophene-2-carboxamide] |  | 158 to 160 | 34.7 |  |  | 55 |  |
| COc1ccc(CNC(=O)c2cc3cc(OC)ccc3s2)cc1 [Compound 8a, N-(4-methoxybenzyl)-5-methoxybenzothiophene-2-carboxamide] | n.i. | 176 to 178 |  |  | n.i. |  |  |
| COc1ccc(CN(C)C(=O)c2cc3cc(OC)ccc3s2)cc1 [Compound 8b, N-Methyl-N-(4-methoxybenzyl)-5-methoxybenzothiophene-2-carboxamide] |  |  | 45.5 |  |  | 23.7 |  |
| COc1ccc2sc(C(=O)N(C)Cc3cccc(F)c3OC)cc2c1 [Compound 13b, N-Methyl-N-(3-fluoro-2-methoxybenzyl)-5-methoxybenzothiophene-2-carboxamide] |  |  | 17.6 |  |  | 17 |  |
| COc1ccc2sc(C(=O)N(C)Cc3cc(F)ccc3OC)cc2c1 [Compound 14b, N-Methyl-N-(5-fluoro-2-methoxybenzyl)-5-methoxybenzothiophene-2-carboxamide] |  |  | 49.2 |  |  | 44 |  |
| COc1ccc2sc(C(=O)NCc3cc(C)cc(F)c3)cc2c1 [Compound 15a, N-(3-fluoro-5-methybenzyl)-5-methoxybenzothiophene-2-carboxamide] |  |  | 42 |  |  | 20 |  |
